pEC50: −log10 of the molar value. Like-named read-outs stand apart in the source and are kept apart here. Where no end group is shown, it is not given here.
Legend:
Format in all cases: cell-based
[1] = target: T1, TcPKr-A (Tribolium castaneum, UniProt A0ACM8QKC5); experiment: Aequorin luminescence (calcium mobilization) assay, CHO cells transiently expressing TcPKr-A
T1 sequence (A0ACM8QKC5 1-530): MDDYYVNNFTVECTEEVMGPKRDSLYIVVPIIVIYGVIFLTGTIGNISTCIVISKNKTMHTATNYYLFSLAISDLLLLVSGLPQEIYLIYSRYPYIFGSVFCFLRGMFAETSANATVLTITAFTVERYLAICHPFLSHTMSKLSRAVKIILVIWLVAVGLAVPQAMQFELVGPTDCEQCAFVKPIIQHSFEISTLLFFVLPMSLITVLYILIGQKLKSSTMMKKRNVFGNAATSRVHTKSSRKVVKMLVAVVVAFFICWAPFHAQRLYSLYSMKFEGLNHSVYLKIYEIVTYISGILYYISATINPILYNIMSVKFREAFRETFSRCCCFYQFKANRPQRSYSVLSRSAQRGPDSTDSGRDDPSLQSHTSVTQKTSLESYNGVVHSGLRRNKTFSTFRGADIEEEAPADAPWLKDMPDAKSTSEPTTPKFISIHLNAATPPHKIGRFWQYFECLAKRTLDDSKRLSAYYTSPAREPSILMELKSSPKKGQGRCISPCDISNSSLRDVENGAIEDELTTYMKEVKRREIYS
Method: (§1) We characterized all PRXamide GPCRs through assays of 9 endogenous ligands. Ligand activities were quantified by detection of luminescence responses from CHO cells transiently transfected with GPCR (see Methods and Materials section for details). Dose-response curves were generated by logistic fitting of the log transformed ligand concentrations ranging from 0.01 nM to 10 μM (Fig. 3). All results, shown as averages, were replicated in three independent experiments (see Supplementary Data 1 for details).
(§2) T. castaneum was kept in a 30°C growth chamber under a 16 : 8 (L : D) photoperiod and fed on a diet of wheat flour and Brewer's yeast (10 : 1). Peptides from T. castaneum were synthesized by Genescript (Piscataway, NJ). For culture of Chinese Hamster Ovary cells (CHO), DMEM/F12 medium, fetal bovine serum (FBS), Fungizone and Penicillin/Streptomycin, and coelenterazine for aequorin functional assay were purchased from Gibco cell culture at Life Technologies^TM (Grand Island, NY). TransIT-LT1 Transfection Reagent (Mirus Bio LLC, Madison, WI) was used for transient transfections. […]
(§3) cDNAs for full GPCR ORFs were inserted into the expression vector pcDNA3.1(+) (Invitrogen) or pcDNA5/FRT (Invitrogen). Methods for expression in Chinese Hamster Ovary (CHO) cell supplemented with aequorin and G-α16 and the assays were performed as previously described. Briefly, cells were transfected using the TransIT-LT1 transfection reagent (Mirus Bio LLC). Thirty hours after the transfection, the cells were collected and preincubated with the coelenterazine (Invitrogen) prior to the functional assay. A serial dilution (10 folds) of the 9 endogenous ligands were applied to the cells. The luminescence caused by the intracellular calcium mobilization were measured in continuous 20 seconds in every half-second interval. […] Based on which, a dose response curve was generated for each receptor by logistic fitting in Origin 8.6 (OriginLab).

[2] = target: T2, TcPKr-B (Tribolium castaneum, UniProt A0A0A7H8P0); experiment: Aequorin luminescence (calcium mobilization) assay, CHO cells transiently expressing TcPKr-B
T2 sequence (A0A0A7H8P0 1-560): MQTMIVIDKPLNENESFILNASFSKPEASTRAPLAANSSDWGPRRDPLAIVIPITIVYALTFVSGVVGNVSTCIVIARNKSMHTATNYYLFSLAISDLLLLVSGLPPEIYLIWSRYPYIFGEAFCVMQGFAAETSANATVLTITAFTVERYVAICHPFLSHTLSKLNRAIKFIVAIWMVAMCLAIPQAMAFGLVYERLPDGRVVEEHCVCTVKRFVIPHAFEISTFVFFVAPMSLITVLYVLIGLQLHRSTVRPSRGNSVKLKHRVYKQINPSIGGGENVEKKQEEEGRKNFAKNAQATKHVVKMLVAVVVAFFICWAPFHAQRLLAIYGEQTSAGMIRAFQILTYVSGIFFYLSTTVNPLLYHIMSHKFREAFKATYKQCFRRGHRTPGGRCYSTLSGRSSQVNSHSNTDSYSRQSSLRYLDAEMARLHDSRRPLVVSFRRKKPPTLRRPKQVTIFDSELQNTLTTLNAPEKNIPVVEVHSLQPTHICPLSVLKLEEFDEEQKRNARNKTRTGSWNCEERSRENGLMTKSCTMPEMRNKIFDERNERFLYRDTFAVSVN
Method: as §1, §2, §3

[3] = target: T3, TcPKr-C (Tribolium castaneum, UniProt A0ACM8QKC4); experiment: Aequorin luminescence (calcium mobilization) assay, CHO cells transiently expressing TcPKr-C; conditions: for Receptor activation, in words: text summary of dose-response data
T3 sequence (A0ACM8QKC4 1-483): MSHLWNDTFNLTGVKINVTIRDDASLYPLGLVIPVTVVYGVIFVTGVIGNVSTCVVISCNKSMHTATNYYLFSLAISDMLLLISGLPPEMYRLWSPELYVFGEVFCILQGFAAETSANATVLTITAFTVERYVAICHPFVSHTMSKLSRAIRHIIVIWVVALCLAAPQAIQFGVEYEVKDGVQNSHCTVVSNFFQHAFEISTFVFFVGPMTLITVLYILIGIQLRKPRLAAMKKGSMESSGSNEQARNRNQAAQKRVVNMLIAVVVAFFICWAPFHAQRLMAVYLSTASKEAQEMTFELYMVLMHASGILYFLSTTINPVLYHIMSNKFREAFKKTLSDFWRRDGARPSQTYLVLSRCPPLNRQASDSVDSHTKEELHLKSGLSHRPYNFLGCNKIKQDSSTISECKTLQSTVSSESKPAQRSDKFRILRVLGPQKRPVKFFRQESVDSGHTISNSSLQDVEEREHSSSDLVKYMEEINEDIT
Method: as §1, §2, §3

[4] = target: T4, TcCAPAr (Tribolium castaneum, UniProt A0A0A7H7W3); experiment: Aequorin luminescence (calcium mobilization) assay, CHO cells transiently expressing TcCAPAr
T4 sequence (A0A0A7H7W3 1-418): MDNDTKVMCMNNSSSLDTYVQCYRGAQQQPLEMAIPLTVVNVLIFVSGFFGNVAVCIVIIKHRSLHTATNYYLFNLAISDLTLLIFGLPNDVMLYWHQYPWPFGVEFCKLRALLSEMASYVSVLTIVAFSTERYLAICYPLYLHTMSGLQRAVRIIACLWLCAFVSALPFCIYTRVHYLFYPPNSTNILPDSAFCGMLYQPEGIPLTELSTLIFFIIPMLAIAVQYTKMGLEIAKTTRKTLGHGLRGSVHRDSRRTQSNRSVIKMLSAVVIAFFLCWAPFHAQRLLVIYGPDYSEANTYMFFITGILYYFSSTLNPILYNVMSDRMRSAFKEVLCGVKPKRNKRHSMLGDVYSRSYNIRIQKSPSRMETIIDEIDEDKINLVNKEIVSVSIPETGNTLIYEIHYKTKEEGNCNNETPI
Method: as §1, §2, §3

[5] = EC50 (bound given in μM), Fig. 3, above highest tested concentration 10 μM
[6] = Supplementary data 1, fitted value incl. extrapolations beyond 10 μM, unit inferred, nM by Fig. 3, read-out: EC50s
[7] = EC50 [nM], Fig. 3, CHO cells with aequorin and G-α16, logistic fit, ligand 0.01 nM to 10 μM, average of three independent experiments

Substance | EC50 [1, 5] | EC50 [1, 6] | EC50 [2, 5] | EC50 [2, 6] | EC50 [3, 5] | pEC50 [4] | EC50 [3, 6] | Receptor activation, in words [3] | EC50 [4, 6] | EC50 [4, 5] | EC50 [4, 7]
NKLASVYALTPSLRV-NH2 [CAPA-1] | > 10 µM | 30.7 µM | > 10 µM | 338 µM | > 10 µM | 8.43 |  |  |  |  | 
TPHESSVPNERNDDSKETYFWFGPRL-NH2 [PK1/DH-2] |  | 0.0926 µM |  | 0.0658 µM |  |  | 0.576 µM | activated by high concentrations | 1070 nM |  | 
RIGKMVSFPRI-NH2 [CAPA-2] | > 10 µM | 12.8 µM | > 10 µM | 62.5 µM | > 10 µM |  |  |  | 5.8 nM |  | 
FFMKASKSVPRI-NH2 [ETH-2] |  | 6.3 µM | > 10 µM | 21.8 µM | > 10 µM |  | 502 µM |  | 88.8 nM |  | 
HSSPFSPRL-NH2 [PK2/PBAN-3] |  | 0.0077 µM |  | 0.0287 µM |  |  | 0.001 µM |  | 36600 nM | > 10000 nM | 
PGANSGGMWFGPRL-NH2 [PK1/DH-1] |  | 0.0062 µM |  | 0.161 µM | > 10 µM |  |  | not | 1070 nM |  | 6970 nM
SPPFAPRL-NH2 [PK2/PBAN-2] |  | 0.0175 µM |  | 0.0032 µM |  |  | 0.013 µM |  | 6970 nM |  | 1070 nM
HVVNFTPRL-NH2 [PK2/PBAN-1] |  | 0.021 µM |  | 0.0119 µM |  |  | 0.0014 µM |  | 16100 nM | > 10000 nM | 
ENYVLKAAKNVPRI-NH2 [ETH-1] |  | 9.84 µM | > 10 µM | 120 µM | > 10 µM |  |  |  | 150 nM |  | 

Reference: PMC4210869, “Functional Phylogenetics Reveals Contributions of Pleiotropic Peptide Action to Ligand-Receptor Coevolution” (Scientific Reports, 2014)
